Tests used:
[1] = system: 39 types of human cancer cell lines (JFCR39); test: Cell line panel (JFCR39) cell proliferation, sulforhodamine B, GI50; format: cell-based
Procedure: In order to extract genes that prescribe the sensitivity and resistance with respect to the FTSJ1 inhibitors, PVZF2001 was used to proceed with the analysis with a cell line panel (JFCR39). […] The GI50 value is defined, based on the number of cells before drug exposure, as a concentration at which the increase is inhibited by 50% by drug treatment, with the increase in a sample cultured for 48 hours without drug treatment (negative control) taken as 100%. In order to extract the target gene clusters, a COMPARE analysis was first performed using gene expression and the Log GI50 values in all of the cell lines. The gene clusters of SEQ ID NOs: 14 to 28 were then identified as FTSJ1 inhibitor resistance-related genetic markers, while the gene clusters of SEQ ID NOs: 34 to 47 were identified as FTSJ1 inhibitor sensitive-related genetic markers. […] The gene clusters of SEQ ID NOs: 29 to 33 were then identified as FTSJ1 inhibitor resistance-related genetic markers, while the gene clusters of SEQ ID NOs: 48 to 56 were identified as FTSJ1 inhibitor sensitive-related genetic markers. Using these genetic markers, a database of gene expression information (TCGA) obtained from patient samples was analyzed. […] That is, the results reveal that the FTSJ1 gene expression level itself also represents sensitivity and resistance with respect to the FTSJ1 inhibitors (SEQ ID NO: 57).

[2] = system: MGG23; test: Sphere-forming ability (anchorage-independent cell proliferation), MGG23; format: cell-based, human; conditions: MGG23 (low FTSJ1 expression), 1 week, 0-5000 nM; FIG. 4B
Procedure: (§1) To verify whether the expression analysis of these gene clusters contributes to predicting the anti-cancer effect by the FTSJ1 inhibitors, the FTSJ1 gene was actually used as an example to analyze the anti-cancer effect of the FTSJ1 inhibitor PVZF2001 on human malignant brain tumor cell lines. Human malignant brain tumor cell lines MGG4, MGG8, MGG18, MGG23 were treated with stem cell medium (Neurobasal, B-27, N-2, 20 ng/mL EGF, 20 ng/mL bFGF) containing different concentrations (0 nm, 200 nM, 500 nM, 1000 NM, 2000 NM, 5000 nM) of PVZF2001 for 1 week, and anchorage-independent cell proliferation was evaluated based on sphere-forming ability.

[3] = system: MGG8; test: Sphere-forming ability (anchorage-independent cell proliferation), MGG8; format: cell-based, human; conditions: MGG8 (high FTSJ1 expression), 1 week, 0-5000 nM; FIG. 4B
Procedure: as §1

[4] = system: triple-negative breast cancer cell line MDA-MB-231; test: Anti-tumor effect evaluation test in MDA-MB-231 tumor model mice; format: in vivo, immunodeficient mice (BALB/c-nu/nu); conditions: 20 mg/kg intraperitoneally every other day in corn oil; FIG. 1 and 2
Procedure: A cell suspension (1×10^6 cells/100 μL), in which triple-negative breast cancer cell line MDA-MB-231 was suspended in phosphate buffer (PBS, produced by FUJIFILM Wako Pure Chemical Corporation), was inoculated subcutaneously in the dorsal lumbar region of immunodeficient mice (BALB/c-nu/nu, female, 6 weeks old, purchased from Shimizu Laboratory Supplies Co., Ltd.) using a syringe with a 23 G injection needle (Terumo Corporation). After confirming that the cancer cells engrafted under the skin of the mice to form tumor tissues, and that the tumor volume reached 100 mm^3, the obtained tumor model mice were used for the following evaluation test. First, each compound for evaluation was dissolved in corn oil (produced by Sigma-Aldrich Co., LLC) and administered intraperitoneally. PVZF0024 was administered at 100 mg/kg and PVZF2001 was administered at 20 mg/kg to the tumor model mice every other day. At each administration, the tumor diameter was measured with a caliper. The tumor volume was calculated according to the following formula: V=(3.14×D×d^2)/6 (wherein V is the tumor volume, D is the tumor major axis, and d is the tumor minor axis) (Wu. et al., Clin. Cancer Res., 2013 Oct. 15; 19(20): 5699-5710).

## CC(C)c1cc(C(C)C)c(S(=O)(=O)CC2CC(C)(C)CC(C)(C)C2)c(C(C)C)c1 [PVZF2001]
[1]; DMS114, 48 hours
  sensitivity / resistance of cell line (Log GI50, FIG. 4A): high sensitivity
[1]; NCI-H23, 48 hours
  sensitivity / resistance of cell line (Log GI50, FIG. 4A): high resistance
[1]; NCI-H522, 48 hours
  sensitivity / resistance of cell line (Log GI50, FIG. 4A): high sensitivity
[1]; SF-539, 48 hours
  sensitivity / resistance of cell line (Log GI50, FIG. 4A): high sensitivity
[1]; SNB-75, 48 hours
  sensitivity / resistance of cell line (Log GI50, FIG. 4A): high sensitivity
[1]; SNB-78, 48 hours
  sensitivity / resistance of cell line (Log GI50, FIG. 4A): high resistance
[1]; U251, 48 hours
  sensitivity / resistance of cell line (Log GI50, FIG. 4A): high sensitivity
[2]
  anchorage-independent cell proliferation (sphere-forming ability): showed cell proliferation even when treated at a concentration as high as 2000 NM
[3]
  anchorage-independent cell proliferation (sphere-forming ability): showed proliferation inhibition at low concentrations
[4]
  antitumor effect (tumor growth, tumor volume): significantly inhibit tumor growth

From patent publication US20230210834A1, “RNA METHYLTRANSFERASE INHIBITOR, SCREENING METHOD THEREFOR, ANTI-CANCER AGENT EFFICACY ASSESSMENT MARKER, AND KIT FOR EFFECTIVELY PREDICTING FTSJ1 INHIBITOR” (National University Corporation Okayama University, priority 2019, published 2023)
